Measured values published in patent US20100178250A1, “Method of Local Delivery of Bioactive and Diagnostic Agents Using Magnetizable Bone Cement” (Philadelphia Health & Education Corporation, priority 2006, published 2010).

What was measured:
[1] = system: bacterial strains cultured directly from clinically retrieved gentamicin-loaded bone cement; details: cited from earlier work
[2] = system: Staphlococcus aureus; assay: Staphlococcus aureus bacterial cultures (plate, clear areas); format: cell-based; details: 150 μL beads or 10 mg tobramycin disc on plate
Method: Staphlococcus aureus bacterial cultures were performed in the microbiology department of Hahnemann University Hospital. On each plate 150 μL of control beads, 150 μL, of antibiotic beads and a 10 mg tobramycin disc were placed in order to see any bactericidal activity.

Row | Molecule | gentamicin resistant strains [1] | bactericidal activity (clear areas indicating lack of bacterial growth) [2]
1 | gentamicin | 19 of 28 | 
2 | NC[C@H]1O[C@H](O[C@H]2[C@H](O)[C@@H](O[C@H]3O[C@H](CO)[C@@H](O)[C@H](N)[C@H]3O)[C@H](N)C[C@@H]2N)[C@H](N)C[C@@H]1O [tobramycin disc, tobramycin] |  | clear areas present
